The results in this text go back to BindingDB's records for doi:10.1007/s10822-022-00478-x (Roche Innovation Center Basel, F. Hoffmann-La Roche Ltd., 2022).

The target in this experiment is cAMP and cAMP-inhibited cGMP 3',5'-cyclic phosphodiesterase 10A (Homo sapiens, UniProt Q9Y233). Nature of the experiment: PDE10A assay. An outline of the steps:
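Scintillation proximity readout of [3H]cGMP hydrolysis (50 nM final substrate, 15 min) by 2 ng/well human PDE10A after 15 min compound preincubation at RT, pH 7.5 with MgCl2. Four-parameter logistic fit gave IC50, reported as pIC50.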

pIC50: −log10 of the molar value.

Regarding `O=C(NCC1CCOCC1)c1nc(C2CC2)cnc1Nc1cncnc1` [Roche-Dataset for PDE10A, Compound 988], the pIC50 (as a rule, −log10 of the IC50, conventionally taken in molar units) was 5.24.
In the case of `O=C(Nc1ccnc(N2CCOCC2)c1)c1nc(C2CC2)cnc1Nc1cncnc1` [Roche-Dataset for PDE10A, Compound 815] it was 8.07; in that of `Cc1cnc(C)n2nc(/C=C/c3nc(N4CCCC4)nn3C3CC3)nc12` [Roche-Dataset for PDE10A, Compound 274], 7.72; in that of `CC(C)NC(=O)c1nc(C2CC2)cnc1OCc1nc(-c2ccccc2)cn1C` [Roche-Dataset for PDE10A, Compound 252], 5.97.
In the case of `O=C(c1nc(C2CC2)cnc1Nc1cncnc1)N1CCC(O)(Cc2ccccc2)CC1` [Roche-Dataset for PDE10A, Compound 1044] it was 5.00; in that of `Cc1cccc2c(=O)[nH]c(CCc3nc(-c4ccccc4)cn3C)nc12` [Roche-Dataset for PDE10A, Compound 74], 7.82; in that of `Cn1nc(N2CCCC2)nc1CCc1nc2c(C#N)cccn2n1` [Roche-Dataset for PDE10A, Compound 342], 6.33.
Compound `Cc1cnccc1NC(=O)c1ccc2cc(-c3ccccc3)nn2c1` [Roche-Dataset for PDE10A, Compound 448] had a pIC50 of 6.25.
`COCCN(C)C(=O)c1cnn(C)c1C(=O)Nc1ccn2cc(-c3ccnc(F)c3)nc2n1` [Roche-Dataset for PDE10A, Compound 147] had a pIC50 of 6.11.
`O=C(Nc1cc(-c2ccc3ccccc3n2)nn1CCO)c1nc(C2CC2)ccc1Nc1cncnc1` [US8470820, 25] showed a pIC50 of 10.05.
Take `Cc1cc(NC(=O)c2c(C(=O)N3CCC3)cnn2C)cc(N)n1` [Roche-Dataset for PDE10A, Compound 1077]: the pIC50 is 6.88.
In the case of `Cc1nc2ccccc2nc1CCc1nc(-c2ccccc2)cn1CC1CC1` [Roche-Dataset for PDE10A, Compound 62] it was 8.03; in that of `COCC1(CNC(=O)c2nc(C3CC3)cnc2Nc2cncnc2)CC1` [Roche-Dataset for PDE10A, Compound 1010], 5.75; in that of `O=C(NCCS(=O)(=O)c1ccccc1)c1nc(C2CC2)cnc1Nc1cncnc1` [Roche-Dataset for PDE10A, Compound 746], 5.46.
In the case of `Cc1ncc(C)n2nc(/C=C/c3nc(N4CCNCC4)nn3C)nc12` [Roche-Dataset for PDE10A, Compound 311] it was 5.81; in that of `Cc1ccc2nc(OCc3nc(-c4ccccc4)cn3C)c(Cl)nc2c1` [Roche-Dataset for PDE10A, Compound 463], 8.37.
The figure for `CCN(CC)C(=O)c1cnn(C)c1C(=O)Nc1ccn2nc(N3CCOCC3)nc2c1` [Roche-Dataset for PDE10A, Compound 203] is 7.66; for `CNC(=O)c1c(F)cc(F)cc1NC(=O)c1nc(C2CC2)cnc1Nc1cncnc1` [US8703768, 299] it is 9.49.
In turn, `CN(c1nc2cc(NC(=O)c3c(C(=O)N4CCOCC4)cnn3C)ccn2n1)C1CC1` [Roche-Dataset for PDE10A, Compound 418] showed a pIC50 of 8.58.
The figure for `CN(C)C(=O)Cc1csc(NC(=O)c2nc(C3CC3)cnc2Nc2cncnc2)n1` [Roche-Dataset for PDE10A, Compound 775] is 7.89.
The figure for `Cc1ncc(C(=O)Nc2ccn3nc(-c4ccccc4)nc3c2)cn1` [Roche-Dataset for PDE10A, Compound 813] is 5.00; for `CN(C)C(=O)c1cnn(C)c1C(=O)Nc1ccn2cc(-c3cccc(OCCCF)c3)nc2n1` [Roche-Dataset for PDE10A, Compound 43] it is 8.14.
The figure for `Cc1nccc2nc(CCc3nc(N4CCCC4)nn3C)nn12` [Roche-Dataset for PDE10A, Compound 714] is 7.08.
The compound `CC(C)C[C@H](CO)NC(=O)c1nc(C2CC2)cnc1Nc1cncnc1` [Roche-Dataset for PDE10A, Compound 939] showed a pIC50 of 5.61.
In the case of `O=C(Nc1cccc(N2CCCC2)c1)c1nc(C2CC2)cnc1Nc1cncnc1` [Roche-Dataset for PDE10A, Compound 793] it was 6.88; in that of `Cc1nc(-c2ccc(Cl)cc2)oc1C(=O)Nc1cc(-c2ccccn2)nn1C` [Roche-Dataset for PDE10A, Compound 947], 6.01; in that of `Cc1cc(NC(=O)c2ccc3cc(-c4ccccc4)nn3c2)cc(C)n1` [Roche-Dataset for PDE10A, Compound 286], 7.12.
For the compound `Cn1ncc(C(=O)N2CC(F)C2)c1C(=O)Nc1ccn2nc(N3CCOCC3)nc2c1` [Roche-Dataset for PDE10A, Compound 372], the pIC50 was 8.30.
On to `Cn1ncc(C(=O)N2CCC2)c1C(=O)Nc1ccc2cc(-c3ccccc3)nn2n1` [Roche-Dataset for PDE10A, Compound 1133], for which the pIC50 is 8.09.
In the case of `COc1cnc(C)n2c(CCc3nc(N4CCCC4)nn3C)nnc12` [Roche-Dataset for PDE10A, Compound 633] it was 5.38; in that of `Cn1nc(-c2ccccn2)cc1NC(=O)c1cc(C(F)(F)F)ncc1Br` [Roche-Dataset for PDE10A, Compound 547], 5.00; in that of `Cn1c(Cl)nc(C(=O)N2CCC2)c1C(=O)Nc1ccn2nc(-c3ccccc3)nc2c1` [Roche-Dataset for PDE10A, Compound 115], 9.35.
The compound `O=C(NCCC(=O)N1CCOCC1)c1nc(C2CC2)cnc1Nc1cncnc1` [Roche-Dataset for PDE10A, Compound 591] had a pIC50 of 5.82.
In the case of `O=C(NC1CCN(c2ccccn2)CC1)c1nc(C2CC2)ccc1Nc1cncnc1` [Roche-Dataset for PDE10A, Compound 1045] it was 6.71; in that of `Cc1nc2ccccc2nc1OCc1csc(N2CCCC2)n1` [Roche-Dataset for PDE10A, Compound 1025], 7.19.
In the case of `Cc1nc2ccccc2nc1CCc1nc(-c2ccccc2)cn1-c1ccccn1` [Roche-Dataset for PDE10A, Compound 17] it was 8.74; in that of `Cc1noc(C(=O)Nc2cc(-c3ccccn3)nn2C)c1Br` [Roche-Dataset for PDE10A, Compound 886], 5.21.
In the case of `O=C(c1ccccc1)N1CCN(C(=O)c2nc(C3CC3)cnc2Nc2cncnc2)CC1` [Roche-Dataset for PDE10A, Compound 1104] it was 5.00; in that of `Cn1cc(-c2ccccc2)nc1/C=C/c1ncc(Cl)nc1Cl` [Roche-Dataset for PDE10A, Compound 465], 6.08; in that of `CN(CCNC(=O)c1nc(C2CC2)cnc1Nc1cncnc1)C(=O)c1ccccn1` [Roche-Dataset for PDE10A, Compound 581], 5.00.
Compound `Cc1c(Br)cn2nc(/C=C/c3nc(N4CCCC4)nn3C)nc2c1C` [Roche-Dataset for PDE10A, Compound 406] gave a pIC50 of 7.92.
In the case of `Cc1c(Cl)cc(Cl)c2nc(CCc3nccs3)nn12` [Roche-Dataset for PDE10A, Compound 996] it was 6.29.
The figure for `Cn1ncc(C(=O)N2CCC2)c1C(=O)Nc1cc(C2CCC2)n(C2CCCC2)n1` [Roche-Dataset for PDE10A, Compound 1088] is 6.07; for `CCOC(=O)c1cnn(C)c1C(=O)Nc1ccn2nc(-c3cccc(F)c3)nc2c1` [Roche-Dataset for PDE10A, Compound 175] it is 7.34.
As for `O=C(Nc1ccn(S(=O)(=O)C(F)(F)F)n1)c1nc(C2CC2)ccc1Nc1cncnc1` [Roche-Dataset for PDE10A, Compound 635], the pIC50 was 7.74.
Take `CN(C)C(=O)c1cnn(C)c1C(=O)Nc1ccn2cc(-c3cccc(Br)c3)nc2n1` [Roche-Dataset for PDE10A, Compound 319]: the pIC50 is 7.40.
In the case of `Cc1cnc(C)n2nc(CCc3nc(NCCCCl)nn3C)nc12` [Roche-Dataset for PDE10A, Compound 725] it was 6.36; in that of `CNC(=O)c1cc2[nH]c(-c3ccccc3)nc2cc1NC(=O)c1c(C(=O)N2CCC2)cnn1C` [Roche-Dataset for PDE10A, Compound 439], 7.16; in that of `Cc1c(Cl)cc(Cl)c2nc(CCc3nncn3-c3ccccc3)nn12` [Roche-Dataset for PDE10A, Compound 582], 7.14.
In the case of `Cn1ncc(C(=O)N2CCC2)c1C(=O)N[C@@H]1CCn2cc(-c3ccccc3Cl)nc2C1` [Roche-Dataset for PDE10A, Compound 408] it was 8.65; in that of `CCN(C)c1nc2cc(NC(=O)c3c(C(=O)O)cnn3C)ccn2n1` [Roche-Dataset for PDE10A, Compound 717], 6.55; in that of `Cn1cc(-c2ccccc2)nc1CCNC(=O)c1cccn2c(C(F)(F)F)nnc12` [Roche-Dataset for PDE10A, Compound 298], 7.06.
In the case of `O=C1CCc2ccc(NC(=O)c3nc(C4CC4)cnc3Nc3cncnc3)cc21` [Roche-Dataset for PDE10A, Compound 881] it was 7.57.
Regarding `O=C(Nc1ccn(C2CC2)n1)c1nc(C2CC2)ccc1Nc1cncnc1` [Roche-Dataset for PDE10A, Compound 715], the pIC50 was 7.59.
On to `O=C1NCc2ccc(NC(=O)c3nc(C4CC4)ccc3Nc3cncnc3)cc21` [Roche-Dataset for PDE10A, Compound 788], for which the pIC50 is 7.70.
The figure for `CN(C)c1nc2ccc(NC(=O)c3c(C(=O)N4CCC4)cnn3C)cn2n1` [Roche-Dataset for PDE10A, Compound 652] is 8.06.
For `Cc1c(Cl)cc(Cl)c2nc(CCc3nc4ccccc4n3C)nn12` [Roche-Dataset for PDE10A, Compound 497], the pIC50 was 7.21.
Take `CNC(=O)c1cc(F)ccc1NC(=O)c1nc(C2CC2)cnc1Nc1cncnc1` [US8703768, 312]: the pIC50 was 9.02.
Compound `COCc1cnn(C)c1C(=O)Nc1ccn2nc(-c3ccccc3)nc2c1` [Roche-Dataset for PDE10A, Compound 239] gave a pIC50 of 7.85.
In the case of `CNC(=O)c1c(NC(=O)c2c(C(=O)N3CCC3)cnn2C)cnn1C` [Roche-Dataset for PDE10A, Compound 1129] it was 5.08.
